Data on 6 molecules can be found in patent US11549134B2, “Modified amadoriase and method for producing the same, agent for improving surfactant resistance of amadoriase and composition for measuring HbA1c using the same” (Kikkoman Corporation, priority 2013, dated 2023).

The subject of data set [1] is CFP-T7. The data set is described as follows: Surfactant resistance of amadoriase in presence of buffering agents. The class given is biochemical, genus Coniochaeta. Particulars: for CFP-T7 Residual Activity (%): 0.01% CTAC, purified CFP-T7. The protocol:
In the above surfactant resistance measuring method, the residual activity of an amadoriase is measured by using various buffers in place of a 30 mM MES/21 mM Tris buffer solution. In this manner, the contribution of the buffer to the amadoriase residual activity can be evaluated. For example, in place of the 30 mM MES/21 mM Tris buffer solution (pH 6.5), e.g., a phosphate buffer solution (pH 7.0), a citrate buffer solution (pH 6.0), a HEPES buffer solution (pH 7.0) or an ACES buffer solution (pH 7.0) can be used. Other conditions and procedure can be the same as in the above surfactant resistance measuring method.
It was studied whether the surfactant resistance of an amadoriase is enhanced or not when a buffering agent other than a 30 mM MES/21 mM Tris buffering agent (pH 6.5) was used. Using CFP-T7 purified as described above as a sample, the final concentration of CTAC was set at 0.01% to evaluate the surfactant resistance of CFP-T7 according to the measurement method for surfactant resistance in Example 1 in the presence of any of various buffering agents, specifically a phosphate buffering agent containing phosphoric acid and potassium phosphate (pH 7.0), a citrate buffering agent containing citric acid and sodium citrate (pH 6.0), an MES buffering agent containing MES and it sodium salt (pH 7.0), an HEPES buffering agent containing HEPES and its sodium salt (pH 7.0), and an ACES buffering agent containing ACES and its sodium salt (pH 7.0), in place of the 30 mM MES/21 mM Tris buffering agent (pH 6.5).

In data set [2] the test system is PnFX. Description: Surfactant resistance of PnFX during addition of each stabilizer. It is filed as biochemical, Phaeosphaeria nodorum. Particulars: 300 mM HEPES (pH 7.0), 0.04% CTAC. On the procedure:
The same stabilizers as those described above were used as stabilizers; 300 mM HEPES (pH 7.0) was used as a buffering agent to prevent a change in pH when the stabilizers was each added; PnFX purified as described above was used as a sample; the final concentration of CTAC was set at 0.04%; and the surfactant resistance of PnFX was evaluated as described above.

Data set [3] relates to CFP-T7. Description: Surfactant resistance of amadoriase during addition of each stabilizer (CFP-T7). It is filed as biochemical, genus Coniochaeta. Conditions: 500 mM HEPES (pH 7.0), 0.01% CTAC. On the procedure:
(§1) In the above surfactant resistance measuring method, various stabilizers are added and the residual activity of an amadoriase is measured in order to evaluate the effect of the stabilizers. […] The concentration sufficient to provide a buffer capacity to a solution refers to the concentration at which pH is maintained within a predetermined range (for example pH5 to 10, pH6 to 8) without having pH change due to other reagents added to the solution. A concentration insufficient to provide a buffer capacity to a solution refers to the concentration at which pH changes by addition of other reagents to the solution and pH falls outside a particular range. These concentrations vary depending upon the type and amount of other reagents to be added to a solution; however, a person skilled in the art can appropriately determine the concentration by conventional methods. Other conditions and procedure can be the same as in the above surfactant resistance measuring method.
(§2) It was studied whether or not the addition of any of various stabilizers enhanced the surfactant resistance of an amadoriase. Phosphoric acid, a tricarboxylic acid (e.g., citric acid), a dicarboxylic acid (e.g., malic acid, maleic acid, citraconic acid, malonic acid, glutaric acid, or tartaric acid), a monpcarboxylic acid (e.g., acetic acid), MES, MOPS, MOPSO, or ammonium sulfate was used as a stabilizer. As a Comparative Example, CHES was used. To prevent change in pH when adding the stabilizer, 500 mM HEPES (pH 7.0) was used as a buffer solution; CFP-T7 purified as described above was used as a sample; the final concentration of CTAC was set at 0.01%; and any of the stabilizers was further added to evaluate the surfactant resistance of CFP-T7 according to the measurement method for surfactant resistance in Example 1. Using a 500 mM HEPES (pH 7.0) buffering agent and CFP-D2 purified as described above as a sample, any of the stabilizers was further added, and the surfactant resistance of CFP-D2 was evaluated according to the measurement method for surfactant resistance in Example 1 although under more harsh surfactant treatment conditions in which the final concentration of CTAC was set at 0.08% and the treatment temperature at 37° C.

Data set [4] deals with CFP-D2. Description: Surfactant resistance of amadoriase during addition of each stabilizer (CFP-D2). It is filed as biochemical, genus Coniochaeta. Conditions: 500 mM HEPES (pH 7.0), 0.08% CTAC, 37°C. The protocol:
as §1
as §2, with “To prevent change in pH when adding the stabilizer, 500 mM HEPES (pH 7.0) was used as a buffer solution; CFP-T7 purified as described above was used as a sample; the final concentration of CTAC was set at 0.01%; and any of the stabilizers was further added to evaluate the surfactant resistance of CFP-T7 according to the measurement method for surfactant resistance in Example 1.” left out

A short description of data set [5]: Measurement of fructosyl peptide sample (αFVH) under mixing of CTAC, change in absorbance at 751 nm. The class given is biochemical. Particulars: for Amount of Change in Absorbance at Wavelength of 751 nm under Mixing of Each Concentration of CTAC: as in Example 5, Table 7. On the procedure:
The purified enzyme of CFP-T7 and CFP-D7 obtained in Example 3-2 was used to measure a sample as shown below. The activity values of CFP-T7 and CFP-D7 were determined using (reagent 1) adjusted to pH 7.0 with αFVH at a final concentration of 5 mM as a substrate according to the method for measuring amadoriase activity.
(Reagent 4) αFVH (125 mg) was dissolved in ion-exchanged water, the volume of the solution was fixed to 10 ml, and thereby a 30 mM substrate solution was obtained. In addition, the resultant was diluted by 1/714 with a CTAC solution to provide a 42 μM αFVH/0% to 0.2% CTAC solution.
(Reagent 6) (50 μl) was added to a mixed solution of 135 μl of (reagent 5) warmed at 37° C. for 5 minutes in advance and 25 μl of the sample prepared in (11) above to start reaction, and absorbance at a wavelength of 751 nm after reaction at 37° C. for 5 minutes was measured using an automated analyzer, Bio Majesty JCA-BM1650 (from JEOL Ltd.). Absorbance (reagent blank) at a wavelength of 751 nm measured by a similar operation for (reagent 4) prepared using ion-exchanged water in place of the substrate solution was used as a control to calculate the amount of change in absorbance (difference) when each sample was measured, using the following equation. The final concentration of a colorimetric substrate, DA-64, was 0.15 mM; the final concentration of αFVH in the case of the presence of a substrate was 5 μM; and the length (optical path) of the cell used for absorbance measurement was 1 cm. Amount of change in absorbance=ΔAes−Ae0
The amount of change in absorbance when αFVH/0% to 0.2% CTAC were used as samples was calculated.
The purified preparations of amadoriases obtained as described above were used as samples to measure αFVH under the mixing of CTAC using PnFX and NvFX as in Example 5.

Where [6] appears, read: Buffer Solution 50 mM, pH 7.0 (citrate pH 6.0).
[7] abbreviates: Buffer Solution 100 mM, pH 7.0 (citrate pH 6.0).

Take `O=C(O)CC(O)(CC(=O)O)C(=O)O` [Citrate, citric acid]: the “CFP-T7 Residual Activity (%)” value in data set [1] (Buffer Solution 10 mM, pH 7.0 (citrate pH 6.0)) came to 104.1%; in data set [1] (setting [6]) it was 108.2%; in data set [1] (setting [7]) it was 105.7%; in data set [3] (Stabilizer 0.2 mM, Table 9-1) it was 12.2%; in data set [3] (Stabilizer 0.5 mM, Table 9-1) it was 30.7%; in data set [3] (Stabilizer 2 mM, Table 9-1), 87.6%. Besides, the “amadoriase stabilizing effect of the buffer (in words)” value in data set [1] (CFP-T7 in the presence of surfactant) is reported as “inactivation due to the surfactant did not occur even at 10 mM”. Moreover, in data set [2] (Stabilizer 0.5 mM), the “PnFX Residual Activity (%)” value came to 47.3%.
As to `O=S(=O)(O)CCN1CCOCC1` [MES, 2-(N-morpholino)ethanesulfonic acid], the “CFP-T7 Residual Activity (%)” value in data set [1] (setting [6]) was found to be 14.3%; in data set [1] (setting [7]), 17.6%; in data set [1] (Buffer Solution 150 mM, pH 7.0), 62.9%; in data set [1] (Buffer Solution 300 mM, pH 7.0), 95.8%; in data set [3] (Stabilizer 10 mM, Table 9-1) it was 19.5%; in data set [3] (Stabilizer 20 mM, Table 9-1), 54.1%. Besides, the “CFP-T7 Residual Activity (%)” value in data set [3] (Stabilizer 40 mM, Table 9-1) is listed as 103.0%. The “PnFX Residual Activity (%)” value in data set [2] (Stabilizer 20 mM) came out at 89.6%.
As to `O=S(=O)(O)CCCN1CCOCC1` [MOPS, 3-(N-morpholino)propanesulfonic acid], the “CFP-T7 Residual Activity (%)” value in data set [3] (Stabilizer 10 mM, Table 9-2) worked out at 6.5%; in data set [3] (Stabilizer 20 mM, Table 9-2) it was 20.6%. In data set [4] (Stabilizer 20 mM), the “CFP-D2 Residual Activity (%)” value is 42.4%.
Consider `O=C(O)CC(O)C(=O)O` (stereo not drawn) [Malate, malic acid], for which the “PnFX Residual Activity (%)” value in data set [2] (Stabilizer 5 mM) was determined as 60.4%. In addition, the “CFP-T7 Residual Activity (%)” value in data set [3] (Stabilizer 2 mM, Table 9-1) was determined as 12.6%; in data set [3] (Stabilizer 5 mM, Table 9-1), 35.4%; in data set [3] (Stabilizer 10 mM, Table 9-1), 74.3%. Also, the “CFP-D2 Residual Activity (%)” value in data set [4] (Stabilizer 5 mM) was 59.2%.
Regarding `O=P(O)(O)O` [Phosphate, phosphoric acid], the “CFP-T7 Residual Activity (%)” value is 15.1% in data set [1] (Buffer Solution 20 mM, pH 7.0 (citrate pH 6.0)); 27.2% in data set [1] (setting [6]); 68.3% in data set [1] (setting [7]); 88.5% in data set [1] (Buffer Solution 150 mM, pH 7.0); 98.4% in data set [1] (Buffer Solution 300 mM, pH 7.0); 28.1% in data set [3] (Stabilizer 2 mM, Table 9-1). The “CFP-T7 Residual Activity (%)” value is 61.6% in data set [3] (Stabilizer 5 mM, Table 9-1); 76.8% in data set [3] (Stabilizer 10 mM, Table 9-1); 98.6% in data set [3] (Stabilizer 20 mM, Table 9-1); 100.0% in data set [3] (Stabilizer 50 mM, Table 9-1). The “PnFX Residual Activity (%)” value in data set [2] (Stabilizer 5 mM) is 37.5%. Also, the “CFP-D2 Residual Activity (%)” value in data set [4] (Stabilizer 5 mM) is 72.8%.

B1: PnFX: fructosyl peptide oxidase derived from Phaeosphaeria nodorum, SEQ ID NO: 40 (protein, listed as Phaeosphaeria nodorum)
chain: MAPSRANTSVIVVGGGGTIGSSTALHLVRSGYTPSNVTVLDAYPIPSSQSAGNDLNKIMGVSLRNPVDLQLALEARQMWNEDELFKKFFHNTGRLDCAHGEKDIADLKSGYQALVDAGLDATNEWLDSEDEILKRMPLLSRDQIKGWKAIFSKDGGWLAAAKAINAVGEYLRDQGVRFGFYGAGSFKAPLLAEGVCIGVETVDGTRYYADKVVLAAGAWSPTLVELHEQCVSKAWVYGHIQLTPEEAARYKNSPVVYNGDVGFFFEPNEHGVIKVCDEFPGFTRFKMHQPFGAKAPKRISVPRSHAKHPTDTIPDASDVSIRRAIATFMPQFKNKKMFNQAMCWCTDTADAALLICEHPEWKNFVLATGDSGHSFKLLPNIGKHVVELLEGTLADDLAHAWRWRPGSGDALKSRRSAPAKDLADMPGWNHDKPRANL
Regarding B1, the “PnFX Residual Activity (%)” value in data set [2] (Stabilizer None) came to 27.9%. The “measurement of αFVH under the mixing of CTAC (in words)” value in data set [5] is “capable of measuring αFVH as a substrate under the mixing of CTAC at a concentration as high as 0.02% or more”. Also, the “Amount of Change in Absorbance at Wavelength of 751 nm under Mixing of Each Concentration of CTAC” value is 0.173 in data set [5] (Mixing of CTAC 0%); 0.115 in data set [5] (Mixing of CTAC 0.01%); 0.084 in data set [5] (Mixing of CTAC 0.02%); 0.026 in data set [5] (Mixing of CTAC 0.04%); 0.008 in data set [5] (Mixing of CTAC 0.06%); 0.003 in data set [5] (Mixing of CTAC 0.1%). In addition, in data set [5] (Mixing of CTAC 0.2%), the “Amount of Change in Absorbance at Wavelength of 751 nm under Mixing of Each Concentration of CTAC” value is listed as 0.001.
